According to patent US20230248626A1, “Compositions Comprising (Bio)-Alkanediols” (Symrise AG, priority 0001, published 2023):
Read-outs that look alike come from different tables or passages of the source.

Assays:
[1] = tested on: Aspergillus brasiliensis; test: MIC and Kull synergy index of 1,2-/2,3-alkanediol mixtures; type: cell-based
[2] = Sensory evaluation on the backside of the hand (spreading, fatty/greasy skin feel, absorption), untrained panellists; settings: blend with Caprylic Capric Triglyceride (CCT) (neutral oil); for Absorption/remaining residue Delta: rows r187-r195, vs without; for Absorption/remaining residue with alkanediol: rows r187-r195, scale 1 to 5
Description: For evaluating the sensory behaviour, liquid lipophilic components specified in the following table were blended with 1,2-heptanediol or 2,3-heptanediol or a mixture of 1,2-heptanediol and 2,3-heptanediol or 1,2-octanediol or 2,3-octanediol or a mixture of 1,2-octanediol and 2,3-octanediol (formulation) in a ratio of 85:15 and assessed by untrained panellists in comparison to the liquid lipophilic component without addition of the specified alkanediols (placebo).
The test procedure was carried as follows: For evaluating the sensory behaviour of 1,2-alkanediols and/or 2,3-alkanediols in combination with different liquid lipophilic components, oil components specified in the following table were blended with a 1,2-alkanediol or a 2,3-alkanediol or a mixture including a 1,2-alkanediol and a 2,3-alkanediol in a ratio as specified in Table 53 and assessed by untrained panellists in comparison to the liquid lipophilic component without addition of the 1,2-alkanediol or 2,3-alkanediol or the mixture including a 1,2-alkanediol and 2,3-alkanediol (placebo).
Test Procedure: • Hands were pre-washed with liquid soap by following a defined procedure; 30 μl of corresponding sample was applied on the backside of each hand (randomized); • After 30 s the spreading behaviour of the respective formulation on skin was evaluated versus the respective oil component without 1,2-heptanediol on a scale from 1 to 5 (1=low spreading; 5=high spreading); • The samples were distributed with the fingertips of middle and forefinger with 2×5 cycles; • After 2 minutes, the fatty/greasy skin feel was evaluated on a scale from 1 to 5 (1=low fatty/greasy skin feel; 5=high fatty/greasy skin feel); • Furthermore the applicants were asked to assess the absorption, i.e. the impression of amount of remaining residue on the skin on a scale from 1 to 5 (1=low absorption; 5=high absorption).

Row | MIC ([1]; single 1,2-alkanediol, read-out: MIC Component A) | Absorption/remaining residue Delta [2] | Absorption/remaining residue with alkanediol [2] | MIC ([1]; single 2,3-alkanediol, read-out: MIC Component B) | SMILES
1 | 7.5 mg/mL | 1.8 | 2.8 |  | CCCCC(O)CO (stereo not drawn) [1,2-hexanediol]
2 |  | 1.8 | 2.8 | 20 mg/mL | CCCC(O)C(C)O (stereo not drawn) [2,3-hexandiol, 2,3-hexanediol]
